Measured values from publication PMC12920295, “Novel radiohybrid PET-Tracers for SST2-targeted imaging of neuroendocrine tumors” (European Journal of Nuclear Medicine and Molecular Imaging, 2025).
Where two headings read alike, the source gives them in different places.

How the values were obtained:
[1] = Lipophilicity LogDpH=7.4, shake flask method; type: physicochemical; settings: PBS (pH = 7.4)/n-octanol
Method: The LogDpH=7.4 was determined using a modified shake flask method as previously described.

[2] = molecular target: T1, human serum albumin (HSA) (Homo sapiens, UniProt P02768); assay: HSA binding by high performance affinity chromatography (HPAC); type: in vitro ADME; settings: affinity to HSA by affinity chromatography (Chiralpak HSA column)
T1 construct: purchased H13H-2433
T1 sequence (P02768 25-609): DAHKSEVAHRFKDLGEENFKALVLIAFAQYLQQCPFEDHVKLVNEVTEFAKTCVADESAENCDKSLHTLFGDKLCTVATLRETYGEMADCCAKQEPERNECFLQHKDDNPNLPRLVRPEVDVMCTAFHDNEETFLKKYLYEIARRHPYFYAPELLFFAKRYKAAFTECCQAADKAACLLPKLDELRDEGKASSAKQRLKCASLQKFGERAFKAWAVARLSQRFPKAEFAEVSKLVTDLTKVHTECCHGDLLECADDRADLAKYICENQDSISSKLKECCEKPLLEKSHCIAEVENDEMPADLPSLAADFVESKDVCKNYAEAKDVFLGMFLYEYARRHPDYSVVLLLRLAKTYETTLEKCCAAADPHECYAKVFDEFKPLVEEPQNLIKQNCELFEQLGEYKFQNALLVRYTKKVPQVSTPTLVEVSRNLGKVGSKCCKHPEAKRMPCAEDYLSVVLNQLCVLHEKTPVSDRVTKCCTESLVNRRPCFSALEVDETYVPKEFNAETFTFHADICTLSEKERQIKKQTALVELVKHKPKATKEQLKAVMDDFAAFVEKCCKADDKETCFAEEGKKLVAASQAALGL
Method: For the determination of binding to human serum albumin (HSA) using HPLC, a Chiralpak HSA column (50 × 3 mm, 5 μm, H13H-2433) was used at a constant flow rate of 0.5 ml/min. The mobile phase (A: NH4OAc, 50 mM in H2O, pH 6.9 and B: iPrOH) was freshly prepared for each day.

AR42J cells = assay: Internalization into AR42J cells relative to [125I]TOC; type: cell-based; settings: percentage compared to internal reference [125I]TOC
Method: AR42J cells (European Collection of Cell Cultures, Salisbury, UK) were grown in RPMI 1640 medium (with 2 mM, L-Glu, 10% FCS; v/v, 37 °C, 5% CO2), harvested 24 ± 2 h and seeded in 24-well poly-L-lysine plates (2.0 × 10^5 cells/well in 1 ml culture medium). After removal of the medium, the cells were washed with assay medium (300 µl, RPMI 1640 with 2 mM L-Glu, 5% BSA; v/v) and incubated in assay medium (200 µl, 15 min, 37 °C, 5% CO2). 25 µl of the ^18F-labeled ligand (20 nM) and [^125I]TOC (1 nM) in assay medium were added followed by either 25 µl TOC in assay medium (100 µM, competition experiment) or 25 µl of assay medium (internalization experiment). Cells were incubated at 37 °C for 15, 30, and 60 min (n = 3 per compound and time point), respectively, and chilled on ice. The supernatant was collected, the well washed with ice-cold RPMI 1640 (300 µl), and the two fractions combined (unbound ligand). The cells were incubated with acid wash solution (300 µl, 0.9% NaCl, 50 mM NaOAc/AcOH buffer, pH = 4.6, 15 min, 4 °C) to remove receptor-bound radioligand. The supernatant was collected, and the cells washed with 300 µl ice-cold acid wash solution (combined fractions: acid releasable, receptor bound ligand). The cells were lysed with NaOH solution (300 µl, 1 M, 15 min, RT), washed with 300 µl of the same solution, the two fractions combined (internalized ligand), and all activities quantified using a γ-counter.

[3] = Biodistribution 1 h p.i. in AR42J xenograft bearing CD1 nu/nu mice; type: in vivo; settings: female, mouse, intravenous, total radioactivity, average ± Stdev
Method: The 8-week-old female CD1 nu/nu mice were purchased from Charles River (Sulzfeld, Germany). Animal experiments were conducted according to general animal welfare regulations (German animal protection act, as amended on 18.05.2018, Art. 141 G v. 29.3.2017 I 626, approval no. 55.2-1.2-54–2532-71-13 by the General Administration of the Free State of Bavaria; Swiss animal welfare regulations: Animal Welfare Act SR 455, license: Canton de Vaud, 3781 d). To establish tumor xenografts, AR42J cells (5 × 10^6 cells in 100 µl serum-free culture medium) were inoculated subcutaneously onto the shoulder. Mice were used for experiments when tumors had grown to a diameter of 5–9 mm (7–15 days after inoculation).
Approximately 0.5–2.5 MBq (0.05–0.20 nmol) of the ^18F-labeled ligands were injected into the tail vein of AR42J xenograft-bearing mice under isoflurane anesthesia (1.5% alveolar concentration). The mice were sacrificed 1 h post injection (n = 3–5). Organs were removed, weighed, and the activity quantified (γ-counter).
An unpaired Welch’s t-test was applied using the GraphPad Prism software (version 10.1.2). Standard deviations for tumor-to-organ (T/O) ratios were calculated using the rules of error propagation. Thresholds for statistical significance are defined as: p > 0.05 (ns); p ≤ 0.05 (*); p ≤ 0.01 (**); p ≤ 0.001 (***); p ≤ 0.0001 (****).

[4] = adrenal glands, AR42J tumor-bearing CD1 nu/nu mice, read-out: Biodistribution Adrenal Glands
[5] = blood, AR42J tumor-bearing CD1 nu/nu mice, read-out: Biodistribution Blood
[6] = femur, AR42J tumor-bearing CD1 nu/nu mice, read-out: Biodistribution Femur
[7] = heart, AR42J tumor-bearing CD1 nu/nu mice, read-out: Biodistribution Heart
[8] = intestine, AR42J tumor-bearing CD1 nu/nu mice, read-out: Biodistribution Intestine
[9] = kidney, AR42J tumor-bearing CD1 nu/nu mice, read-out: Biodistribution Kidney
[10] = liver, AR42J tumor-bearing CD1 nu/nu mice, read-out: Biodistribution Liver
[11] = lung, AR42J tumor-bearing CD1 nu/nu mice, read-out: Biodistribution Lung
[12] = muscle, AR42J tumor-bearing CD1 nu/nu mice, read-out: Biodistribution Muscle
[13] = pancreas, AR42J tumor-bearing CD1 nu/nu mice, read-out: Biodistribution Pancreas
[14] = spleen, AR42J tumor-bearing CD1 nu/nu mice, read-out: Biodistribution Spleen
[15] = stomach, AR42J tumor-bearing CD1 nu/nu mice, read-out: Biodistribution Stomach
[16] = tumor (AR42J xenograft), AR42J xenograft, CD1 nu/nu mice, read-out: Biodistribution Tumor

SMILES | LogDpH=7.4 ([1]; mean of n = 8) | HSA HPAC [2] [%] | Internalization (AR42J cells) [%] | tissue uptake at 1 h [3, 4] [%ID/g] | tissue uptake at 1 h [3, 5] [%ID/g] | tissue uptake at 1 h [3, 6] [%ID/g] | tissue uptake at 1 h [3, 7] [%ID/g] | tissue uptake at 1 h [3, 8] [%ID/g] | tissue uptake at 1 h [3, 9] [%ID/g] | tissue uptake at 1 h [3, 10] [%ID/g] | tissue uptake at 1 h [3, 11] [%ID/g] | tissue uptake at 1 h [3, 12] [%ID/g] | tissue uptake at 1 h [3, 13] [%ID/g] | tissue uptake at 1 h [3, 14] [%ID/g] | tissue uptake at 1 h [3, 15] [%ID/g] | tissue uptake at 1 h [3, 16] [%ID/g] | LogDpH=7.4 ([1]; mean of n = 8, listed as [^natGa]rhTATE1)
C[C@@H](O)[C@H](NC(=O)[C@@H]1CSSC[C@H](NC(=O)[C@@H](Cc2ccccc2)NC(=O)CN2CCN(CC(=O)O)CCN(CC(=O)NCCCC[C@@H](NC(=O)[C@@H](CNC(=O)C[N+](C)(C)Cc3ccc([Si](F)(C(C)(C)C)C(C)(C)C)cc3)NC(=O)[C@@H](CCCNC(N)=O)NC(=O)[C@@H](CCCNC(N)=O)NC(=O)[C@H](N)CCCNC(N)=O)C(=O)O)CCN(CC(=O)O)CC2)C(=O)N[C@@H](Cc2ccc(O)cc2)C(=O)N[C@H](Cc2c[nH]c3ccccc23)C(=O)N[C@@H](CCCCN)C(=O)N[C@@H]([C@@H](C)O)C(=O)N1)C(=O)O [[^18/natF][^natGa]rhTATE2.1, metal not drawn] | −2.27 | 98.8 | 536 | – | – | – | – | – | – | – | – | – | – | – | – | – | –
C[C@@H](O)[C@H](NC(=O)[C@@H]1CSSC[C@H](NC(=O)[C@@H](Cc2ccccc2)NC(=O)CN2CCN(CC(=O)O)CCN(CC(=O)NCCCC[C@@H](NC(=O)[C@@H](CNC(=O)C[N+](C)(C)Cc3ccc([Si](F)(C(C)(C)C)C(C)(C)C)cc3)NC(=O)[C@@H](CCCNC(N)=O)NC(=O)[C@@H](CCCNC(N)=O)NC(=O)[C@H](N)CCC(=O)O)C(=O)O)CCN(CC(=O)O)CC2)C(=O)N[C@@H](Cc2ccc(O)cc2)C(=O)N[C@H](Cc2c[nH]c3ccccc23)C(=O)N[C@@H](CCCCN)C(=O)N[C@@H]([C@@H](C)O)C(=O)N1)C(=O)O [[^18/natF][^natGa]rhTATE2.2, metal not drawn] | −2.30 | 94.3 | 550 | 4.35 ± 0.69 | 0.39 ± 0.19 | 1.7 ± 0.45 | 0.33 ± 0.01 | 2.87 ± 0.15 | 32.6 ± 3.5 | 2.43 ± 0.36 | 6.29 ± 0.65 | 0.06 ± 0.01 | 31.5 ± 2.32 | 1.31 ± 0.2 | 13.4 ± 1.6 | 27.9 ± 4.78 | –
C[C@@H](O)[C@H](NC(=O)[C@@H]1CSSC[C@H](NC(=O)[C@@H](Cc2ccccc2)NC(=O)CN2CCN(CC(=O)O)CCN(CC(=O)NCCCC[C@@H](NC(=O)[C@@H](CNC(=O)C[N+](C)(C)Cc3ccc([Si](F)(C(C)(C)C)C(C)(C)C)cc3)NC(=O)[C@@H](CN)NC(=O)[C@@H](CCC(=O)O)NC(=O)[C@H](N)CCC(=O)O)C(=O)O)CCN(CC(=O)O)CC2)C(=O)N[C@@H](Cc2ccc(O)cc2)C(=O)N[C@H](Cc2c[nH]c3ccccc23)C(=O)N[C@@H](CCCCN)C(=O)N[C@@H]([C@@H](C)O)C(=O)N1)C(=O)O [[^18/natF][^natGa]rhTATE2.3, metal not drawn] | −2.12 | 96.0 | 619 | – | – | – | – | – | – | – | – | – | – | – | – | – | –
C[C@@H](O)[C@H](NC(=O)[C@@H]1CSSC[C@H](NC(=O)[C@@H](Cc2ccccc2)NC(=O)CN2CCN(CC(=O)O)CCN(CC(=O)NCCCC[C@@H](NC(=O)[C@@H](CNC(=O)C[N+](C)(C)Cc3ccc([Si](F)(C(C)(C)C)C(C)(C)C)cc3)NC(=O)[C@@H](CCCCN)NC(=O)[C@@H](CCC(=O)O)NC(=O)[C@H](N)CCC(=O)O)C(=O)O)CCN(CC(=O)O)CC2)C(=O)N[C@@H](Cc2ccc(O)cc2)C(=O)N[C@H](Cc2c[nH]c3ccccc23)C(=O)N[C@@H](CCCCN)C(=O)N[C@@H]([C@@H](C)O)C(=O)N1)C(=O)O [[^18/natF][^natGa]rhTATE2.4, metal not drawn] | −2.28 | 92.7 | 841 | – | – | – | – | – | – | – | – | – | – | – | – | – | –
CC(=O)N[C@@H]1[C@@H](O)[C@H](O)[C@@H](CO)O[C@H]1NC(=O)C[C@H](NC(=O)C[N+](C)(C)Cc1ccc([Si](F)(C(C)(C)C)C(C)(C)C)cc1)C(=O)N[C@@H](CC(=O)O)C(=O)N[C@@H](CC(=O)O)C(=O)NCCOCCOCC(=O)N[C@H](Cc1ccccc1)C(=O)N[C@H]1CSSC[C@@H](C(=O)N[C@H](C(=O)O)[C@@H](C)O)NC(=O)[C@H]([C@@H](C)O)NC(=O)[C@H](CCCCN)NC(=O)[C@@H](Cc2c[nH]c3ccccc23)NC(=O)[C@H](Cc2ccc(O)cc2)NC1=O [[^nat/18F]SiTATE, SiFAlin-Asn(Ac-NHβGlc)Asp2-PEG1-TATE, reference compound] | −1.27 | 86.8 | 236 | 1.89 ± 0.37 | 0.81 ± 0.11 | 1.54 ± 0.34 | 0.47 ± 0.06 | 1.67 ± 0.21 | 16.3 ± 1 | 1.97 ± 0.25 | 3.38 ± 0.62 | 0.15 ± 0.02 | 8.94 ± 1.98 | 0.66 ± 0.08 | 6.75 ± 0.58 | 22.7 ± 2.68 | –
C[C@@H](O)[C@H](NC(=O)[C@@H]1CSSC[C@H](NC(=O)[C@@H](Cc2ccccc2)NC(=O)CN2CCN(CC(=O)O)CCN(CC(=O)NC[C@@H](NC(=O)C[N+](C)(C)Cc3ccc([Si](F)(C(C)(C)C)C(C)(C)C)cc3)C(=O)O)CCN(CC(=O)O)CC2)C(=O)N[C@@H](Cc2ccc(O)cc2)C(=O)N[C@H](Cc2c[nH]c3ccccc23)C(=O)N[C@@H](CCCCN)C(=O)N[C@@H]([C@@H](C)O)C(=O)N1)C(=O)O [[^nat/18F][^natGa]rhTATE1, N-SiFAlin-N, N-Me2-Gly-D-Dap(trans-[^natGa]DOTA-TATE), metal not drawn] | −1.03 | 95.4 | – | – | – | – | – | – | – | – | – | – | – | – | – | – | -1.03
C[C@@H](O)[C@H](NC(=O)[C@@H]1CSSC[C@H](NC(=O)[C@@H](Cc2ccccc2)NC(=O)CN2CCN(CC(=O)O)CCN(CC(=O)NCCCC[C@@H](NC(=O)C[N+](C)(C)Cc3ccc([Si](F)(C(C)(C)C)C(C)(C)C)cc3)C(=O)O)CCN(CC(=O)O)CC2)C(=O)N[C@@H](Cc2ccc(O)cc2)C(=O)N[C@H](Cc2c[nH]c3ccccc23)C(=O)N[C@@H](CCCCN)C(=O)N[C@@H]([C@@H](C)O)C(=O)N1)C(=O)O [[^nat/18F][^natGa]rhTATE2, N-SiFAlin-N, N-Me2-Gly-D-Lys(trans-[^natGa]DOTA-TATE), metal not drawn] | −1.19 | 94.5 | – | – | – | – | – | – | – | – | – | – | – | – | – | – | –
